The test has as its system autoimmune antibodies (anti-CCP antibody) in serum samples. Put plainly: Sandwich ELISA of patient serum samples on peptide-coated microplates (absorbance at 450 nm). It is filed as binding, human. The conditions noted are these: diluted 200 times; for Average (absorbance) OA: OA patient serum samples (15 subjects); for Average (absorbance) RA: RA patient serum samples (30 subjects), peptide coated at about 10 μg/ml; for Average (absorbance) SLE: SLE patient serum samples (25 subjects); for Average (absorbance) Normal: normal control group serum samples (25 subjects). The method, then: Sandwich enzyme linked immunosorbent assay (ELISA) using the peptides of Table 1 were performed on the samples from 4 test groups. Serum samples of RA patients (30 subjects), OA patients (15 subjects), SLE patients (25 subjects), and control group samples (25 normal subjects) were prepared.
Each of the prepared peptides of Table 1 was diluted with PBS to about 10 μg/ml, added by about 100 μl to a microplate, and then coated at about 4° C. overnight, followed by adding about 200 μl of BSA solution (10 mg/mL) to each well of the peptide coated microplate to block at room temperature for about 1 hour, and washing the microplate with a PBS including about 0.1% of Tween-20 three times to use the microplate it in this assay. The patient samples and normal control group sample were diluted by 200 times and added triplet by about 100 μl to the wells of the peptide-coated microplate. After being cultured at room temperature for about 1 hour, the resulting microplate was washed three times in the same manner as the above-described washing. To detect autoimmune antibodies in the samples, 100 μl of an anti-human IgG antibody solution ([…]) was added to each cell of the microplate and incubated at room temperature for about 1 hour, followed by washing three times in the same manner as the above-described washing. After 100 μl of a TMB substrate solution was added thereto and reacted at room temperature for about 30 minutes, finally 100 μl of a 2M sulfuric acid solution was added as a stop solution to terminate the reaction, followed by absorbance measurement at a wavelength of about 450 nm using a microplate reader.
Autoimmune antibody levels in the blood samples of normal patients and various types of arthritis patients were analyzed by enzyme linked immunosorbent assay (ELISA) using the peptides of SEQ ID NOS.
Autoimmune antibody levels in the blood samples of normal patients and various arthritis patients were analyzed by ELISA using the peptides of SEQ ID NOS.

Positions of bridges follow the written chain, without caps; N, C: chain ends. Non-standard residues stand in square brackets, D forms with d. No end group written: not given here. Cit = NC(=O)NCCC[C@H](N)C(=O)O; Ahx = NCCCCCC(=O)O

As for “HSH15: HSHQESTXGRSRGSG; CCP with disulfide bond-forming cysteine substituted with serine, X citrulline (HSHQEST[Cit]GRSRGSG)”, the “Average (absorbance) OA” value is reported as 0.2277, the “Average (absorbance) RA” value stood at 0.1942, the “Average (absorbance) SLE” value is 0.2704 and the “Average (absorbance) Normal” value amounted to 0.1067.
“CCP12P: HCHQESTXGRSPGCG; CCP with 12th amino acid substituted by proline (HCHQEST[Cit]GRSPGCG; disulfide 2-14)”: the “Average (absorbance) OA” value stood at 0.2847, the “Average (absorbance) SLE” value turned out to be 0.3619 and the “Average (absorbance) Normal” value worked out at 0.1250.
For “ZZH19: ZZHSHQESTXGRSRGSGZZ; aminocaproic acid (Z) added to N- and C-terminals of HSH15 ([Ahx][Ahx]HSHQEST[Cit]GRSRGSG[Ahx][Ahx])”, the “Average (absorbance) Normal” value came out at 0.1609.
As to “CCP: cyclic citrullinated peptide HCHQESTXGRSRGCG, X citrulline (HCHQEST[Cit]GRSRGCG; disulfide 2-14) [reference compound]”, the “Average (absorbance) OA” value was 0.2314, the “Average (absorbance) RA” value was determined as 0.2522, the “Average (absorbance) SLE” value is 0.2347 and the “Average (absorbance) Normal” value worked out at 0.0874.
Regarding “CCP11A: HCHQESTXGRARGCG; CCP with 11th amino acid serine substituted by alanine (HCHQEST[Cit]GRARGCG; disulfide 2-14)”, the “Average (absorbance) SLE” value stood at 0.3321 and the “Average (absorbance) Normal” value was 0.1125.
As for “CCP10P: HCHQESTXGPSRGCG; CCP with 10th amino acid arginine substituted by proline (HCHQEST[Cit]GPSRGCG; disulfide 2-14)”, the “Average (absorbance) Normal” value is on record as 0.0994.
“ZZH17: ZZHSHQESTXGRSRGSG; aminocaproic acid (Z) added to N-terminal of HSH15 ([Ahx][Ahx]HSHQEST[Cit]GRSRGSG)”: the “Average (absorbance) SLE” value amounted to 0.2738 and the “Average (absorbance) Normal” value turned out to be 0.1102.
For the substance “RF: rheumatoid factor peptide EGLHNHY (listed as Homo sapiens) [reference compound]”, the “Average (absorbance) OA” value was 0.2791, the “Average (absorbance) RA” value is recorded as 0.2534, the “Average (absorbance) SLE” value came to 0.3417 and the “Average (absorbance) Normal” value was 0.1484.
As to “HSH17: HSHQESTXGRSRGSGZZ; aminocaproic acid (Z) added to C-terminal of HSH15 (HSHQEST[Cit]GRSRGSG[Ahx][Ahx])”, the “Average (absorbance) Normal” value is given as 0.1412.
“CCPPAP: HCHQESTXGPAPGCG; CCP with 10th, 11th, 12th amino acids substituted by proline, alanine, proline (HCHQEST[Cit]GPAPGCG; disulfide 2-14)”: the “Average (absorbance) OA” value was 0.2591, the “Average (absorbance) SLE” value was 0.3287 and the “Average (absorbance) Normal” value is 0.1140.

Values taken from patent publication US10266568B2, “Cyclic citrullinated peptide, rheumatoid arthritis diagnosis composition including the same, rheumatoid arthritis diagnosis method using the peptide or the composition, and method of screening diagnostic marker for rheumatoid arthritis” (KOREA INSTITUTE OF SCIENCE AND TECHNOLOGY, priority 2015, dated 2019).
